From PMC9800739, “Epigenetic drugs in somatostatin type 2 receptor radionuclide theranostics and radiation transcriptomics in mouse pheochromocytoma models” (Theranostics, 2023)
Entries after “also recorded” stand apart in the source; their conditions may differ. Read-outs that look alike come from different tables or passages of the source.

Tests used:
MPC and MTT cells = experiment: Viability assay (colorimetric tetrazolium dye); type: cell-based, mouse; settings: MPC and MTT cells (similar); three days after treatment start; two treatments at 24 h interval
Experimental: Viability of cells seeded into collagen-coated 96-well microplates (6×10^4/cm^2) was measured three days after treatment start using a colorimetric tetrazolium dye assay [39]. Doxorubicin served as positive control.

SSTR2 [1] = target: T1, SSTR2 (Mus musculus, UniProt P30875); experiment: [68Ga]Ga-DOTA-TATE radioligand uptake in cells; type: cell-based; settings: MPC cells; 37 °C; VPA 10^-3 mol/L; DAC 5×10^-7 mol/L; attributed to cytotoxic effects
T1 construct: endogenous in cells; host or cells: MPC and MTT mouse pheochromocytoma cells (cell homogenates), untreated or treated with VPA + DAC
Experimental: Cells were seeded into collagen-coated microplates or collagen-coated flasks 24 h before epigenetic treatment (ET) start and treated twice (24 h interval) with VPA and DAC, as single and combination doses, respectively. Treatment effects were investigated two to six days (d) after final ET. Preparation of epigenetic drugs is reported in Supplemental Information 1.1.
Radionuclide production and supply are described in Supplemental Information 1.2.
Cells were seeded into collagen-coated 24-well microplates (2.5×10^4/cm^2) and uptake of [^68Ga]Ga-DOTA-TATE was measured three and seven days after ET start. Cells were incubated with fresh cell culture medium containing 0.8 MBq/mL [^68Ga]Ga-DOTA-TATE (Am = 10 MBq/nmol), equivalent to 80 nmol/L, for 60 min at 4 °C or 37 °C. Cells were washed and lysed, and activity of cell lysates was measured as described previously. Total protein in cell lysates was measured using the Qubit protein assay (Thermo Fisher Scientific). Uptake of [^68Ga]Ga-DOTA-TATE was reported as % initial dose per mg of protein.

MTT tumors [2] = settings: for increase of average SUVmean of tumors vs control cohort: MTT tumors, VPA 250 mg/kg, DAC 1 mg/kg, single or combination, i.p. twice at 72 h interval, DAC P < 0.05, combination P < 0.01; for SUVmean tumor / SUVmax ratio tumor / muscle / SUVmax tumor / SUVmean ratio tumor / muscle: MTT; for percentage of MTT responders (SUV): n = 7 per cohort, threshold control mean + 2×TE
Experimental: All animal experiments were carried out according to the guidelines of the German Regulations for Animal Welfare and have been approved by the local Ethical Committee for Animal Experiments. A number of 4×10^6 MPC or MTT cells were re-suspended in 40 µL of Dulbecco's phosphate-buffered saline and injected subcutaneously into the shoulder of 10-15 week-old female nude mice (Rj:NMRI-Foxn1^nu/nu, Janvier Labs, Le Genest-Saint-Isle, France). Prior to imaging procedures, general anesthesia was induced and maintained with inhalation of 10% (v/v) desflurane in 30/10% (v/v) oxygen/air. During anesthesia, animals were continuously warmed at 37°C. Tumor growth was monitored three times per week using caliper measurements. Tumor volume was calculated assuming a tri-axial ellipsoid with the axes a, b, and c using the formula V = π/6×abc. Animals were sacrificed using CO2 inhalation and cervical dislocation.
Preparation of epigenetic drugs is described in Supplemental Information 1.1. Animals received VPA (1.7×10^‒3 mol/kg ≈ 250 mg/kg), DAC ([…] ≈ 1 mg/kg), or a combination of both, in Dulbecco's phosphate buffered saline (200 µL/30 g body weight), delivered as two consecutive intraperitoneal injections in a 72 h-interval. Applied doses were within the epigenetically effective dose range in mice, as reported elsewhere, [41]-[43]. The estimated human equivalent doses corresponded to 20‒30% of the clinically applied tumor-suppressive doses in patients, [45]. Animals in control groups received Dulbecco's phosphate buffered saline only. Multiple independent experiments were performed, always including animals of all treatment groups (Table 1).
Small animal positron emission tomography (PET) was performed using the nanoPET/CT scanner (Mediso Medical Imaging Systems, Budapest, Hungary). […] Recording, binning, framing, and image reconstruction were performed as reported previously. Dynamic imaging was performed for 60 min, static imaging between 40‒60 min after radiotracer injection. With each PET scan, a corresponding CT image was recorded and used for anatomical referencing and attenuation correction. […] Standardized uptake values (SUV) were determined and reported as SUVmean (VOI-averaged) and SUVmax (VOI-maximum). Details on quantitative PET image analysis are provided in Supplemental Information 1.4.
106 (VOIs) were created (40‒60 min frames) applying fixed thresholds for delineation of tumor
107 (30%), muscle (0%), kidneys (25%), and liver (35%). […]

MPC tumors = experiment: Tumor growth of MPC allografts; type: in vivo, mouse; settings: PET cohorts; for Vtumor, ET start: day 0 baseline, mean ± SEM; for Vtumor, ET start + 4 d: day 4, mean ± SEM
Experimental: (§1) During anesthesia, animals were continuously warmed at 37°C. […] Animals were sacrificed using CO2 inhalation and cervical dislocation. […]
(§2) 70 1.1 Preparation of epigenetic drugs
(§3) 71 For in vitro application, VPA was freshly dissolved in cell culture medium and added to the
(§4) 72 cells at final concentrations between 10‒5 and 10‒2 mol/L. DAC was dissolved in H2O to obtain
(§5) 73 a 10‒4 mol/L stock solution that was stored at ‒20 °C. For each experiment, aliquots of the DAC
(§6) 74 stock were thawed and added to the cells at final concentrations between 10‒8 and 10‒5 mol/L.
(§7) 75 For in vivo application, VPA was dissolved at 0.26 mol/L in Dulbecco’s phosphate-buffered
(§8) 76 saline. DAC was dissolved at 0.04 mol/L in acetic acid (9.6 mol/L) to obtain a stock solution
(§9) 77 that was further diluted to 6.6×10‒4 mol/L in Dulbecco’s phosphate buffered. […]
(§10) 88 1.3 Tumor volumes in animal cohorts
(§11) 89 Animals with higher initial tumor volume were specifically included in cohorts that received
(§12) 90 epigenetic drugs in order to compensate for the growth-reducing effects of ET and to match
(§13) 91 tumor volumes as closely as possible across cohorts at the time of radiopharmaceutical injection

MTT tumors [3] = experiment: Tumor growth of MTT allografts; type: in vivo, mouse; settings: PET cohorts; for Vtumor, ET start: day 0 baseline, mean ± SEM; for Vtumor, ET start + 4 d: day 4, mean ± SEM
Experimental: as §1, §2, §3, §4, §5, §6, §7, §8, §9, §10, §11, §12, §13

SSTR2 [4] = settings: cited from earlier work; for SSTR2 expression (effect): BON-1 cells, monotherapies and combined application; for SSTR2 gene expression (effect): QGP-1 cells
Source text: HDAC and DNMT inhibitors can have different impacts depending on the cellular background. For example, in QGP-1 cells, DAC induced, but VPA inhibited SSTR2 gene expression.

[5] = [64Cu]Cu-DOTA-TATE, 40‒60 min p.i., day 1 after final ET, control or VPA 250 mg/kg, DAC 1 mg/kg days −3 and 0, mean ± SEM, DAC P < 0.05, VPA+DAC P < 0.001
[6] = as SUVmean, mean ± SEM, DAC P < 0.05
[7] = as SUVmean, mean ± SEM, VPA+DAC P < 0.01

T1 sequence (P30875 whole entry): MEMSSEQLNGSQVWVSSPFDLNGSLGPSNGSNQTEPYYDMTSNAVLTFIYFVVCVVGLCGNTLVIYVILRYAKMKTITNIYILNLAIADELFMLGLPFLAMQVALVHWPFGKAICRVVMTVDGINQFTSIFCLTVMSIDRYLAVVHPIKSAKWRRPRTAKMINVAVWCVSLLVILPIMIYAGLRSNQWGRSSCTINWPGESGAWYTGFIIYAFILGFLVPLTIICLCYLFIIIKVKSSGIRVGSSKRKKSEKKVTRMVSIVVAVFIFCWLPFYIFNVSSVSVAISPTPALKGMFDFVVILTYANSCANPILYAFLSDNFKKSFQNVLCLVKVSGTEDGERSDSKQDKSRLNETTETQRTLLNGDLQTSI

Structure (SMILES): CCCC(CCC)C(=O)O [VPA, valproic acid]
- LD50 (MPC and MTT cells): 0.0013 mol/L
- [68Ga]Ga-DOTA-TATE uptake (effect) (SSTR2 [1]): impairment of [68Ga]Ga-DOTA-TATE uptake; also recorded: reduced radiotracer uptake at 37 °C
- increase of average SUVmean of tumors vs control cohort (MTT tumors [2]): 1.4 fold
- SUVmean tumor (MTT tumors [2]; [5]): 0.73 ± 0.08
- SUVmax ratio tumor / muscle (MTT tumors [2]; animal 1, 40‒60 min p.i.): 3.3
- SUVmax tumor (MTT tumors [2]; animal 1, 40‒60 min p.i.): 0.69
- SUVmean ratio tumor / muscle (MTT tumors [2]; animal 1, 40‒60 min p.i.): 3.20
- SUVmean tumor (MTT tumors [2]; animal 1, 40‒60 min p.i.): 0.34
- SUVmax ratio tumor / muscle (MTT tumors [2]; animal 2, 40‒60 min p.i.): 4.72
- SUVmax tumor (MTT tumors [2]; animal 2, 40‒60 min p.i.): 1.41
- SUVmean ratio tumor / muscle (MTT tumors [2]; animal 2, 40‒60 min p.i.): 10.52
- SUVmean tumor (MTT tumors [2]; animal 2, 40‒60 min p.i.): 0.70
- SUVmax ratio tumor / muscle (MTT tumors [2]; animal 3, 40‒60 min p.i.): 8.25
- SUVmax tumor (MTT tumors [2]; animal 3, 40‒60 min p.i.): 1.61
- SUVmean ratio tumor / muscle (MTT tumors [2]; animal 3, 40‒60 min p.i.): 7.63
- SUVmean tumor (MTT tumors [2]; animal 3, 40‒60 min p.i.): 0.71
- SUVmax ratio tumor / muscle (MTT tumors [2]; animal 4, 40‒60 min p.i.): 10.8
- SUVmax tumor (MTT tumors [2]; animal 4, 40‒60 min p.i.): 1.60
- SUVmean ratio tumor / muscle (MTT tumors [2]; animal 4, 40‒60 min p.i.): 11.4
- SUVmean tumor (MTT tumors [2]; animal 4, 40‒60 min p.i.): 0.73
- SUVmax ratio tumor / muscle (MTT tumors [2]; animal 5, 40‒60 min p.i.): 5.31
- SUVmax tumor (MTT tumors [2]; animal 5, 40‒60 min p.i.): 1.62
- SUVmean ratio tumor / muscle (MTT tumors [2]; animal 5, 40‒60 min p.i.): 7.80
- SUVmean tumor (MTT tumors [2]; animal 5, 40‒60 min p.i.): 0.74
- SUVmax ratio tumor / muscle (MTT tumors [2]; animal 6, 40‒60 min p.i.): 5.70
- SUVmax tumor (MTT tumors [2]; animal 6, 40‒60 min p.i.): 1.73
- SUVmean ratio tumor / muscle (MTT tumors [2]; animal 6, 40‒60 min p.i.): 9.73
- SUVmean tumor (MTT tumors [2]; animal 6, 40‒60 min p.i.): 0.86
- SUVmax ratio tumor / muscle (MTT tumors [2]; animal 7, 40‒60 min p.i.): 6.06
- SUVmax tumor (MTT tumors [2]; animal 7, 40‒60 min p.i.): 2.23
- SUVmean ratio tumor / muscle (MTT tumors [2]; animal 7, 40‒60 min p.i.): 9.95
- SUVmean tumor (MTT tumors [2]; animal 7, 40‒60 min p.i.): 1.06
- SUVmax ratio tumor / muscle (MTT tumors [2]; as SUVmean, mean ± SEM): 6.30 ± 0.94
- SUVmean ratio tumor / muscle (MTT tumors [2]; [6]): 8.60 ± 1.04
- SUVmax tumor (MTT tumors [2]; [7]): 1.55 ± 0.17
- percentage of MTT responders (SUV) (MTT tumors [2]): 29%
- Vtumor, ET start (MPC tumors): 0.27 ± 0.13 cm3
- Vtumor, ET start + 4 d (MPC tumors): 0.46 ± 0.23 cm3
- Vtumor, ET start (MTT tumors [3]): 0.14 ± 0.05 cm3
- Vtumor, ET start + 4 d (MTT tumors [3]): 0.35 ± 0.05 cm3
- SSTR2 expression (effect) (SSTR2 [4]): increased
- SSTR2 gene expression (effect) (SSTR2 [4]): inhibited
- stimulating effects on SSTR2 expression and [111In]In-DOTA-TATE uptake, reversibility (SSTR2 [4]; one day after VPA withdrawal): largely reversible one day after VPA withdrawal

Structure (SMILES): Nc1ncn([C@H]2C[C@H](O)[C@@H](CO)O2)c(=O)n1 [DAC, 5-Aza-2'-deoxycytidine]
- LD50 (MPC and MTT cells): 6.3e-07 mol/L
- [68Ga]Ga-DOTA-TATE uptake (effect) (SSTR2 [1]): impairment of [68Ga]Ga-DOTA-TATE uptake; also recorded: reduced radiotracer uptake at 37 °C
- increase of average SUVmean of tumors vs control cohort (MTT tumors [2]): 1.7 fold
- SUVmean tumor (MTT tumors [2]; [5]): 0.88 ± 0.13
- SUVmax ratio tumor / muscle (MTT tumors [2]; animal 1, 40‒60 min p.i.): 4.01
- SUVmax tumor (MTT tumors [2]; animal 1, 40‒60 min p.i.): 0.83
- SUVmean ratio tumor / muscle (MTT tumors [2]; animal 1, 40‒60 min p.i.): 4.91
- SUVmean tumor (MTT tumors [2]; animal 1, 40‒60 min p.i.): 0.38
- SUVmax ratio tumor / muscle (MTT tumors [2]; animal 2, 40‒60 min p.i.): 6.62
- SUVmax tumor (MTT tumors [2]; animal 2, 40‒60 min p.i.): 1.52
- SUVmean ratio tumor / muscle (MTT tumors [2]; animal 2, 40‒60 min p.i.): 7.82
- SUVmean tumor (MTT tumors [2]; animal 2, 40‒60 min p.i.): 0.65
- SUVmax ratio tumor / muscle (MTT tumors [2]; animal 3, 40‒60 min p.i.): 5.31
- SUVmax tumor (MTT tumors [2]; animal 3, 40‒60 min p.i.): 1.66
- SUVmean ratio tumor / muscle (MTT tumors [2]; animal 3, 40‒60 min p.i.): 8.27
- SUVmean tumor (MTT tumors [2]; animal 3, 40‒60 min p.i.): 0.77
- SUVmax ratio tumor / muscle (MTT tumors [2]; animal 4, 40‒60 min p.i.): 11.0
- SUVmax tumor (MTT tumors [2]; animal 4, 40‒60 min p.i.): 2.00
- SUVmean ratio tumor / muscle (MTT tumors [2]; animal 4, 40‒60 min p.i.): 12.6
- SUVmean tumor (MTT tumors [2]; animal 4, 40‒60 min p.i.): 0.80
- SUVmax ratio tumor / muscle (MTT tumors [2]; animal 5, 40‒60 min p.i.): 7.68
- SUVmax tumor (MTT tumors [2]; animal 5, 40‒60 min p.i.): 1.88
- SUVmean ratio tumor / muscle (MTT tumors [2]; animal 5, 40‒60 min p.i.): 11.5
- SUVmean tumor (MTT tumors [2]; animal 5, 40‒60 min p.i.): 0.93
- SUVmax ratio tumor / muscle (MTT tumors [2]; animal 6, 40‒60 min p.i.): 14.7
- SUVmax tumor (MTT tumors [2]; animal 6, 40‒60 min p.i.): 2.71
- SUVmean ratio tumor / muscle (MTT tumors [2]; animal 6, 40‒60 min p.i.): 17.9
- SUVmean tumor (MTT tumors [2]; animal 6, 40‒60 min p.i.): 1.24
- SUVmax ratio tumor / muscle (MTT tumors [2]; animal 7, 40‒60 min p.i.): 18.9
- SUVmax tumor (MTT tumors [2]; animal 7, 40‒60 min p.i.): 2.72
- SUVmean ratio tumor / muscle (MTT tumors [2]; animal 7, 40‒60 min p.i.): 21.3
- SUVmean tumor (MTT tumors [2]; animal 7, 40‒60 min p.i.): 1.37
- SUVmax ratio tumor / muscle (MTT tumors [2]; as SUVmean, mean ± SEM): 9.74 ± 2.05
- SUVmean ratio tumor / muscle (MTT tumors [2]; [6]): 12.1 ± 2.2
- SUVmax tumor (MTT tumors [2]; [7]): 1.90 ± 0.25
- percentage of MTT responders (SUV) (MTT tumors [2]): 57%
- Vtumor, ET start (MPC tumors): 0.39 ± 0.16 cm3
- Vtumor, ET start + 4 d (MPC tumors): 0.57 ± 0.18 cm3
- Vtumor, ET start (MTT tumors [3]): 0.23 ± 0.07 cm3
- Vtumor, ET start + 4 d (MTT tumors [3]): 0.24 ± 0.06 cm3
- SSTR2 expression (effect) (SSTR2 [4]): increased
- SSTR2 gene expression (effect) (SSTR2 [4]): induced
